How the values were obtained:
[1] = Measurement of Log P values by HPLC on reversed phase columns (EEC directive 79/831 Annex V.A8); type: physicochemical; conditions: method [a]: LC-UV, acidic range, 0.1% formic acid in water and acetonitrile as eluent
Outline: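 Log P derived from retention on reversed-phase columns (EEC directive 79/831 Annex V.A8), LC-UV, acetonitrile gradient 10% to 95% against water containing 0.1% formic acid, 0.001 M ammonium acetate, or 0.1% phosphoric acid; several values per method separated by "+".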

[2] = tested on: Alternaria brassicae; test: In vivo preventive test on Alternaria brassicae (leaf spot on radish or cabbage); conditions: 500 ppm of active ingredient, preventive spray on radish or cabbage, evaluated 3 to 4 days after inoculation, read-out: efficacy
Outline: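 Protective spray on young radish or cabbage: actives in water diluted from DMSO/acetone/Tween 80, with solvent-only controls. Leaves were challenged after 24 h with a spore suspension, and plants were held at 100% RH, 20 °C for 3 to 4 days.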

[3] = tested on: Botrytis cinerea; test: In vivo preventive test on Botrytis cinerea (grey mould); conditions: 500 ppm of active ingredient, preventive spray on gherkin or cabbage, evaluated 4 to 5 days after inoculation, read-out: efficacy
Outline: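 Preventive spray on cabbage or gherkin seedlings, with compound formulated in DMSO/acetone/Tween 80 and water-diluted, preceded spore inoculation by 24 hours. Cabbage was held 4 to 5 days at 20° C., 100% relative humidity; gherkin 4 to 5 days at 17° C., 90% relative humidity.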

[4] = tested on: Sphaerotheca fuliginea; test: In vivo preventive test on Sphaerotheca fuliginea (powdery mildew on cucurbits); conditions: Podosphaera fuliginea, 192 h; 500 ppm of active ingredient; preventive spray on gherkin; evaluated 8 days after inoculation; read-out: efficacy
Procedure: B-4. in vivo preventive test on Sphaerotheca fuliginea (powdery mildew on cucurbits) [table] The active ingredients were made soluble and homogenized in a mixture of Dimethyl sulfoxide/Acetone/Tween® 80 and then diluted in water to the desired concentration. The young plants of gherkin were treated by spraying the active ingredient prepared as described above. Control plants were treated only with an aqueous solution of Acetone/Dimethyl sulfoxide/Tween® 80. After 24 hours, the plants were contaminated by spraying the leaves with an aqueous suspension of Sphaerotheca fuliginea spores. The contaminated gherkin plants were incubated for 8 days at 20° C. and at 70-80% relative humidity.

[5] = tested on: Colletotrichum lindemuthianum; test: In vivo preventive test on Colletotrichum lindemuthianum (leaf spot on bean); conditions: 168 h, 500 ppm of active ingredient, preventive spray on bean, evaluated 7 days after inoculation, read-out: efficacy
Procedure: B-5. In Vivo Preventive Test on Colletotrichum lindemuthianum (Leaf Spot on Bean) [table] The active ingredients were made soluble and homogenized in a mixture of Dimethyl sulfoxide/Acetone/Tween® 80 and then diluted in water to the desired concentration. The young plants of bean were treated by spraying the active ingredient prepared as described above. Control plants were treated only with an aqueous solution of Acetone/Dimethyl sulfoxide/Tween® 80. After 24 hours, the plants were contaminated by spraying the leaves with an aqueous suspension of Colletotrichum lindemuthianum spores. The contaminated bean plants were incubated for 24 hours at 20° C. and at 100% relative humidity and then for 6 days at 20° C. and at 90% relative humidity.

[6] = tested on: Alternaria alternata; test: Alternaria alternata in vitro cell test; type: cell-based; conditions: 120 h, 20 ppm of active ingredient, liquid culture, 5 days incubation, spectrometric measurement of mycelium growth, read-out: efficacy (inhibition of fungal growth)
Outline: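 Spectrometric readout of mycelial growth after 5-day incubation gauged compound effects on spore germination and growth of A. alternata in liquid medium. Compounds were delivered in DMSO at ≤1% final. Absorbance was compared with untreated controls to give inhibition.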

[7] = tested on: Colletotrichum lindemuthianum; test: B-8. Colletotrichum lindemuthianum in vitro cell test; type: cell-based; conditions: 144 h, 20 ppm of active ingredient, 6 days incubation, liquid culture, absorbance, read-out: efficacy (inhibition of fungal growth)
Outline: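 Liquid-culture germination/growth test: compounds in ≤1% final DMSO were added to spore-containing medium. Fungal growth was quantified spectrophotometrically after 6 days of incubation and expressed as inhibition versus untreated controls.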

[8] = tested on: Pyrenophora teres; test: B-10. Pyrenophora teres in vitro cell test; type: cell-based; conditions: 144 h, 20 ppm of active ingredient, 6 days incubation, liquid culture, absorbance, read-out: efficacy (inhibition of fungal growth)
Outline: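 Liquid-culture assay on a P. teres spore suspension with compounds added to the medium from DMSO solutions, final DMSO ≤1%. Mycelium growth read spectrometrically after 6 days. Inhibition calculated from absorbance against untreated control wells.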

[9] = tested on: Botrytis cinerea; test: B-11. Botrytis cinerea in vitro cell test; type: cell-based; conditions: 144 h, 20 ppm of active ingredient, 6 days incubation, liquid culture, absorbance, read-out: efficacy (inhibition of fungal growth)
Outline: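 B. cinerea spores were grown in liquid culture with compound (DMSO ≤1% final). Mycelium growth was measured spectrometrically after 6 days, with inhibition taken as absorbance relative to untreated control wells.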

| Structure (SMILES) | chromatographic logP ([1]; reversed phase HPLC column) | pest or weed control at 500 ppm [2] [%] | pest or weed control at 500 ppm [3] [%] | pest or weed control at 500 ppm [4] [%] | pest or weed control at 500 ppm [5] [%] | inhibition at 20 ppm [6] [%] | inhibition at 20 ppm [7] [%] | inhibition at 20 ppm [8] [%] | inhibition at 20 ppm [9] [%] | chromatographic logP [1] |
| --- | --- | --- | --- | --- | --- | --- | --- | --- | --- | --- |
| Cc1ccc2c(C(=O)NC[C@H](F)c3ccc(Br)cc3Cl)c(Oc3cccc(C(F)(F)F)c3)nnc2c1 (racemic) [I-046] | 4.57 | 90 to 100 | 90 to 100 | 90 to 100 | 90 to 100 | 90 to 100 | 90 to 100 | – | – | – |
| O=C(NCCc1ccc2c(c1)OCCO2)c1c(Oc2cccc(C(F)(F)F)c2)nnc2ccccc12 [I-086] | – | 90 to 100 | 90 to 100 | – | 90 to 100 | 90 to 100 | 90 to 100 | 90 to 100 | 90 to 100 | 3.42 |
| O=C(NCC(F)(F)c1ccc(C2=CCCC2)cc1Cl)c1c(Oc2cccc(C(F)(F)F)c2)nnc2ccccc12 [I-073] | 5.4 | 90 to 100 | 90 to 100 | – | 80 to 89 | – | – | 90 to 100 | 90 to 100 | – |
| Cc1ccc([C@H](C)NC(=O)c2c(Oc3cccc(C(F)(F)F)c3)nnc3c2OCCO3)cc1 (racemic) [I-102] | 3.02 | 90 to 100 | 90 to 100 | 90 to 100 | 90 to 100 | 90 to 100 | 90 to 100 | – | – | – |
| COc1cc([C@@H](F)CNC(=O)c2c(Oc3cccc(Cl)c3)nnc3ccccc23)ccc1Cl (racemic) [I-050] | 3.77 | 90 to 100 | 80 to 89 | – | 80 to 89 | 90 to 100 | 90 to 100 | – | 90 to 100 | – |
| O=C(NCC(F)(F)c1ccc(Cl)cc1)c1c(Oc2cccc(C(F)F)c2)nnc2ccccc12 [I-034] | 3.68 | 90 to 100 | 90 to 100 | – | 80 to 89 | 90 to 100 | 90 to 100 | – | – | – |
| O=C(NCC(F)c1ccc(Cl)cc1Cl)c1c(Oc2cccc(C(F)(F)F)c2)nnc2c1OCCO2 (racemic) [I-101, N-[2-(2,4-dichlorophenyl)-2-fluoro-ethyl]-3-[3-(trifluoro-methyl)phenoxy]-6,7-dihydro-[1,4]dioxino[2,3-c]pyridazine-4-carboxamide] | 3.37 | 90 to 100 | 90 to 100 | 90 to 100 | 90 to 100 | 90 to 100 | 80 to 89 | – | – | – |
| Cc1cc(Cl)ccc1[C@@H](F)CNC(=O)c1c(Oc2cccc(C(F)(F)F)c2)cnc2ccccc12 (racemic) [I-061] | 4.47 | 90 to 100 | 90 to 100 | 90 to 100 | 70 to 79 | 90 to 100 | 90 to 100 | – | 90 to 100 | – |
| Cc1ccc2c(c1)CCC[C@@H]2NC(=O)c1c(Oc2cccc(C(F)(F)F)c2)nnc2ccccc12 (racemic) [I-078] | 4.47 | 90 to 100 | 90 to 100 | 90 to 100 | – | 90 to 100 | 90 to 100 | 90 to 100 | 90 to 100 | – |
| O=C(NCC(F)(F)c1ccc(Br)cc1Cl)c1c(Oc2cccc(C(F)(F)F)c2)nnc2c1OCCO2 [I-103] | 3.6 | 80 to 89 | 90 to 100 | 90 to 100 | 80 to 89 | 90 to 100 | 90 to 100 | – | – | – |

Second part, led by results:

| chromatographic logP ([1]; reversed phase HPLC column) | Structure (SMILES) | pest or weed control at 500 ppm [2] [%] | pest or weed control at 500 ppm [3] [%] | pest or weed control at 500 ppm [4] [%] | pest or weed control at 500 ppm [5] [%] | inhibition at 20 ppm [6] [%] | inhibition at 20 ppm [7] [%] | inhibition at 20 ppm [8] [%] | inhibition at 20 ppm [9] [%] | chromatographic logP [1] |
| --- | --- | --- | --- | --- | --- | --- | --- | --- | --- | --- |
| 4.85 | Cc1ccc(C(F)(F)CNC(=O)c2c(Oc3cccc(C(F)(F)F)c3)nnc3c2CCC3(C)C)c(C)c1 [I-232] | 80 to 89 | 90 to 100 | 90 to 100 | – | – | 70 to 79 | 90 to 100 | 90 to 100 | – |
| 4.13 | C#Cc1cccc(Oc2cnc3ccccc3c2C(=O)NCC(F)(F)c2ccc(C)cc2C)c1 [I-215] | 80 to 89 | 90 to 100 | 90 to 100 | – | 80 to 89 | 90 to 100 | 90 to 100 | 90 to 100 | – |
| 3.84 | O=C(c1c(Oc2cccc(C(F)(F)F)c2)nnc2ccccc12)N(O)CCc1ccc(Cl)cc1 [I-167] | 90 to 100 | 70 to 79 | – | 80 to 89 | – | 80 to 89 | 90 to 100 | 90 to 100 | – |
| 4.43 | Cc1ccc(C(F)(F)CNC(=O)c2c(Oc3cccc(Br)c3F)cnc3ccccc23)c(C)c1 [I-225] | 70 to 79 | 90 to 100 | 90 to 100 | – | 90 to 100 | 90 to 100 | 90 to 100 | 90 to 100 | – |
| 3.48 | O=C(NC[C@H](F)c1ccc(Br)cc1Cl)c1c(Oc2cccc(C(F)(F)F)c2)nnc2c1OCCO2 (racemic) [I-105] | 90 to 100 | 90 to 100 | 90 to 100 | 90 to 100 | 90 to 100 | 90 to 100 | – | – | – |
| 3.18 | Cc1ccc(C(F)(F)CNC(=O)c2c(Oc3cccc(C(F)(F)F)c3)nnc3c2CC(O)CC3)c(C)c1 (stereo not shown) [I-117] | 70 to 79 | 90 to 100 | 90 to 100 | 90 to 100 | 90 to 100 | 90 to 100 | – | 90 to 100 | – |
| 3.37 | Cc1ccc(C(F)(F)CNC(=O)c2c(Oc3cccc(C(F)(F)F)c3)nnc3c2OCCO3)c(C)c1 [I-106] | 90 to 100 | 90 to 100 | 90 to 100 | 90 to 100 | 90 to 100 | 90 to 100 | – | – | – |
| 3.65 | O=C(N[C@H]1CCOc2ccccc21)c1c(Oc2cccc(C(F)(F)F)c2)nnc2ccccc12 [I-172] | 90 to 100 | – | 80 to 89 | – | 90 to 100 | 90 to 100 | 90 to 100 | 90 to 100 | – |
| 4.62 | Cc1ccc(C(F)(F)CNC(=O)c2c(Oc3cccc(C(F)(F)F)c3)nnc3cc(F)ccc23)cc1C [I-175] | 90 to 100 | – | – | 80 to 89 | 90 to 100 | 90 to 100 | 90 to 100 | 90 to 100 | – |
| 4.4 | C=Cc1cccc(Oc2cnc3ccccc3c2C(=O)NCC(F)(F)c2ccc(C)cc2C)c1 [I-221] | 90 to 100 | 90 to 100 | – | 70 to 79 | 90 to 100 | 90 to 100 | 90 to 100 | 90 to 100 | – |

From patent US20230192617A1, “AZABICYCLIC(THIO)AMIDES AS FUNGICIDAL COMPOUNDS” (Bayer CropScience Aktiengesellschaft, priority 2020, published 2023)
